We go through 3 compounds from patent US9233184B2, “Adhesive preparation” (HISAMITSU PHARMACEUTICAL CO., INC., priority 2006, dated 2016).

The conditions of data set [1]: human, in vivo. As to the method:
(§1) Blood was collected over time. […] Methyl salicylate and 1-menthol are contained in large amounts in daily necessities. Therefore, the use of such daily necessities was avoided before and during the application.
(§2) The plasma concentrations of the methyl salicylate, its metabolite salicylic acid, and the 1-menthol were separately measured. The measurement was performed by liquid chromatography-mass spectrometry for the salicylic acid and by gas chromatography-mass spectrometry for the methyl salicylate and the 1-menthol. Each of the measurement methods was validated beforehand to confirm measurement reliability. Values obtained by subtracting an endogenous concentration (measurement value on 0 hour) before the application from an actual measurement value were used as plasma concentrations during the application. The Cmax and AUC0-24 were calculated according to the standard methods.
A mean was an average value from the seven individuals to be tested. This measurement of the plasma concentrations was performed according to the guideline of FDA (U.S. Food and Drug Administration) (Guidance for Industry=Bioanalytical Method Validation).

The next data set in a line: clinical. Particulars: human, in vivo; for Cmax: plasma Cmax. As for the experimental part:
as §1, §2
This measurement of the plasma concentrations was performed according to the guideline of FDA (U.S. Food and Drug Administration) (Guidance for Industry=Bioanalytical Method Validation).

The conditions of data set [2]: cited from earlier work.

SMILES strings stand for the structures. Like-named read-outs stand apart in the source and are kept apart here.

As for `O=C(O)c1ccccc1O` [Salicylic acid], the “time within which maximum plasma concentration (Cmax) is achieved” value in data set [1] was not above 12 h. Also, the AUC(0-t) – broadly, exposure summed from dosing to a finite time, without extrapolation to infinity – in “clinical” (plasma AUC0-24, Maximum value) is 24700 ng·h/mL; in “clinical” (plasma AUC0-24, Mean ± S.D.) it was 8850 ng·h/mL; in the data set “clinical” (plasma AUC0-24, Minimum value) it was 3460 ng·h/mL. Further, the results for the Cmax in “clinical” (Maximum value), in “clinical” (Mean ± S.D.) and in the data set “clinical” (Minimum value) were 4100 ng/mL, 1290 ng/mL and 531 ng/mL, respectively.

With `COC(=O)c1ccccc1O` [Methyl salicylate], the “time within which maximum plasma concentration (Cmax) is achieved” value in data set [1] is not above 6 h. The area under the curve AUC(0-t) is 139 ng·h/mL in “clinical” (plasma AUC0-24, Maximum value); 30.1 ng·h/mL in “clinical” (plasma AUC0-24, Mean ± S.D.); 3.7 ng·h/mL in the data set “clinical” (plasma AUC0-24, Minimum value). Besides, the Cmax – broadly, the peak of the concentration-time curve – is 109 ng/mL in the data set “clinical” (Maximum value), 21.1 ng/mL in the data set “clinical” (Mean ± S.D.) and 2.5 ng/mL in “clinical” (Minimum value). The “plasma concentration of methyl salicylate” value is reported as “approximately 30 ng/mL” in data set [2] (eight pieces of adhesive preparation with 74.88 mg/piece of methyl salicylate applied to a human) and “hardly rose” in data set [2] (two pieces of adhesive preparation with 74.88 mg/piece of methyl salicylate applied to a human).

As to `CC1CCC(C(C)C)C(O)C1` (stereo not drawn) [Example 1-menthol, 1-menthol], in data set [1], the “time within which maximum plasma concentration (Cmax) is achieved” value was not above 8 h. The compound also displayed an AUC(0-t) in the data set “clinical” (plasma AUC0-24, Mean ± S.D.) of 80.6 ng·h/mL.
